Measured values as given in patent publication US4350702A, “Method of inhibiting platelet aggregation” (Beecham Group Limited, priority 1975, dated 1982).
Where a name gives a salt, the structure may show the parent alone.

test system: platelet aggregation in response to collagen (human platelet-rich plasma); experiment: Inhibition of collagen-induced platelet aggregation in vitro (human platelet-rich plasma, photometric aggregometer); type: cell-based; details: 0.05 h, final concentration 100 μM, human PRP, 37°, 3 min incubation before collagen, just-maximal collagen dose, read-out: % Inhibition of the platelet aggregation response to collagen
Method: The compounds of the Examples above were tested for their ability to inhibit platelet aggregation in vitro as follows:
Platelet-rich-plasma (PRP) is prepared by centrifuging the anti-coagulated blood at 180 g., for 12 minutes, at room temperature. Collagen (3×-bovine achilles tendon) is suspended in 0.9% (w/v) saline, using a commercially available mixer emulsifier. PRP was mixed with 0.1 volumes saline (control) or compound dissolved in saline and incubated at 37° for 3 minutes, before the addition of collagen. Water-insoluble compounds were added to PRP, dissolved in 0.005 volumes dimethylformamide, the solvent being included in controls when appropriate. The final concentration of each compound was 100 μM.
The activity of each compound was expressed as percentage inhibition of the aggregation response to a dose of collagen producing a just-maximal change in light transmission in control PRP.

| Compound | inhibition at 100 µM |
| --- | --- |
| O=c1c2ccccc2sn1CCN1CCCCCC1 [Example 19, 2-β-(homopiperidin-1-yl)ethyl-1,2-benzisothiazol-3-one hydrochloride] | 92% |
| O=c1c2cc(Cl)c(Cl)cc2sn1CCN1CCCC1 [Example 16, 5,6-dichloro-2-β-(1-pyrrolidinyl)ethyl-1,2-benzisothiazol-3-one] | 100% |
| O=c1c2ccccc2sn1CCN1CCc2ccccc2C1 [Example 20, 2-β-(N-tetrahydroisoquinolylethyl)-1,2-benzisothiazol-3-one hydrochloride] | 100% |
| O=c1c2ccccc2sn1CNc1ccccn1 [Example 4, 2-[2'-Pyridylaminomethyl]-1,2-benzisothiazol-3-one] | 100% |
| O=c1c2ccccc2sn1CCn1sc2ccccc2c1=O [Example 21, 1,2-bis(1,2-benzisothiazol-3-on-2-yl)ethane] | 91% |
| COc1cc2sn(CCc3ccccn3)c(=O)c2cc1OC [Example 3, 5,6-Dimethoxy-2[β-(2-pyridyl)ethyl]-1,2-benzisothiazol-3-one] | 100% |
| O=c1c2ccccc2sn1CCN1CC2CCC(CC2)C1 [Example 13, 2-β-(3-azabicyclo[3.2.2]non-3-yl)ethyl-1,2-benzisothiazol-3-one hydrochloride] | 100% |
| COc1cc2sn(CCN3CC4CCC(CC4)C3)c(=O)c2cc1OC [Example 15, 5,6-dimethoxy-2-β-(3-azabicyclo[3.2.2]non-3-yl)ethyl 1,2-benzisothiazol-3-one] | 92% |
| O=c1c2ccccc2sn1CCc1ccccn1 [Example 9, 2-(β-2'-pyridylethyl)-1,2-benzisothiazol-3-one hydrochloride] | 100% |
| CC1CCCCN1CCn1sc2ccccc2c1=O (stereo not shown) [Example 27] | 100% |
| O=c1c2ccccc2sn1CNc1ccncc1 [Example 23, 2-[4'-pyridylaminomethyl]-1,2-benzisothiazol-3-one] | 23% |
| Cc1ccc2sn(CCc3ccccn3)c(=O)c2c1 [Example 10, 5-methyl-2-(β-2'-pyridylethyl)-1,2-benzisothiazol-3-one hydrochloride] | 100% |
| O=c1c2ccc(Cl)cc2sn1CCc1ccccn1 [Example 11, 6-chloro-2-(β-2'-pyridylethyl)-1,2-benzisothiazol-3-one hydrochloride] | 100% |
| O=c1c2cc(Cl)c(Cl)cc2sn1CCc1ccccn1 [Example 12] | 100% |
| O=c1c2cc(Cl)ccc2sn1CCc1ccccn1 [Example 1, 5-Chloro-2[β-(2-pyridyl)ethyl]-1,2-benzisothiazol-3-one hydrochloride] | 100% |
| O=c1c2cc(Cl)c(Cl)cc2sn1CCN1CC2CCC(CC2)C1 [Example 14, 5,6-dichloro-2-β-(3-azabicyclo[3.2.2]non-3-yl)ethyl-1,2-benzisothiazol-3-one] | 100% |
| O=c1c2ccccc2sn1N1CCOCC1 [Example 5, 2-(morpholino)-1,2-benzisothiazol-3-one] | 100% |
| COc1cc2sn(CCN3CCCC3)c(=O)c2cc1OC [Example 18] | 91% |
| O=c1c2ccccc2sn1CCCCCCN1CC2CCC(CC2)C1 [Example 2, 2-[6-(3-azabicyclo[3.2.2]non-3-yl)-hexyl]-1,2-benzisothiazlol-3-one hydrochloride] | 100% |
| O=c1c2cc(Cl)ccc2sn1-c1ncccn1 [Example 7] | 100% |
| O=c1c2cc(Cl)ccc2sn1-c1ccccn1 [Example 6] | 100% |

same assay, conditions: Homo sapiens, 0.05 h, read-out: % Inhibition of the platelet aggregation response to collagen

| Compound | inhibition at 100 µM |
| --- | --- |
| O=c1c2ccccc2sn1-c1nccs1 [Example 8, 2-(thiazol-2-yl)-1,2-benzisothiazol-3-one] | 100% |
